# Laboratory results taken from PubChem BioAssay AID2418 (NMMLSC, 2010).
# Activity calls are given as the source filed them.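 Rule for the calls: active = compounds reducing bradykinin-triggered filopodia by more than 10% inhibition at 10 microM; inactive = the rest.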
# System: Swiss 3T3 bradykinin-induced filopodia, phalloidin imaging
# Assay: inhibition of bradykinin-induced filopodia formation, orthogonal assay for Ras-related GTPase inhibitor project, imaging, 3T3 cells, bradykinin stimulation (AID 2418)
# Settings: at 10 µM; stronger effect = higher value
row,SMILES,inhibition
1,Cc1cccc(C2CC(c3ccccc3)=NN2c2ccc(S(N)(=O)=O)cc2)c1 (stereo not drawn),19%
2,Cc1ccc(C2CC(c3ccccc3)=NN2c2ccc(S(N)(=O)=O)cc2)cc1 (stereo not drawn),-11% (inactive)
3,COc1ccc(C2CC(c3ccccc3)=NN2c2ccc(S(N)(=O)=O)cc2)cc1 (stereo not drawn),56%
